pIC50: −log10 of the molar value.
Key:
[1] = target: Dual specificity mitogen-activated protein kinase kinase 1 (Homo sapiens, UniProt Q02750); assay: Inhibition of MEK1 by HTRF assay
[2] = Inhibition of ERK phosphorylation in LPS-stimulated mouse PEC by HTRF assay
[3] = target: T1, Mitogen-activated protein kinase kinase kinase 8 (Homo sapiens, UniProt P41279); assay: Inhibition of human recombinant COT by HTRF-based assay
[4] = target: T1, Mitogen-activated protein kinase kinase kinase 8; assay: Inhibition of COT by cell-based HTRF assay

Sequence of Dual specificity mitogen-activated protein kinase kinase 1 (Q02750 whole entry): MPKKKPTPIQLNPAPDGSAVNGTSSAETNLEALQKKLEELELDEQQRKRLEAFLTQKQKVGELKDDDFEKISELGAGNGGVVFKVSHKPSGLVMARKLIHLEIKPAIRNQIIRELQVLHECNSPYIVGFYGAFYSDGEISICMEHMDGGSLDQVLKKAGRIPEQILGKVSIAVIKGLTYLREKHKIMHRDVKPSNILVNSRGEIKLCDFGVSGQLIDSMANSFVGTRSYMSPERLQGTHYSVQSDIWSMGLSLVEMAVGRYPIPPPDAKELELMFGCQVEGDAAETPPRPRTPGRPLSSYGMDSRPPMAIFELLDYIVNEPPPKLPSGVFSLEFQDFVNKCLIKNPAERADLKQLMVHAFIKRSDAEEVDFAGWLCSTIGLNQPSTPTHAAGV
T1 sequence (P41279 whole entry): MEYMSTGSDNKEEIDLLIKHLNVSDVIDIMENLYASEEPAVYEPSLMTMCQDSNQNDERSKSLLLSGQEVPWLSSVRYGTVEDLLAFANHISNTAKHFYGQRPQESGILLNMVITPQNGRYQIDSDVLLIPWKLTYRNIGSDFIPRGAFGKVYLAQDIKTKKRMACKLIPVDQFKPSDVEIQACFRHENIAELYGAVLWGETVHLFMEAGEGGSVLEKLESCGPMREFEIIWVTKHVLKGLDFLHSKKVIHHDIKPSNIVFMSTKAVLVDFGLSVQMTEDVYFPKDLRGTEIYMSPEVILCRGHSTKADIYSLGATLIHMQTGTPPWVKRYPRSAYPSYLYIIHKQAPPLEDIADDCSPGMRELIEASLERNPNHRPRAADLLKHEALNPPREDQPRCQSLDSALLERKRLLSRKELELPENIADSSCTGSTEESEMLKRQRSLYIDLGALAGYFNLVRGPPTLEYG

pIC50 [1] | pIC50 [2] | pIC50 [3] | pIC50 [4] | Structure (SMILES)
4.85 |  | 7.40 |  | OCc1ccc(-c2ccc(Oc3cncc4sc(-c5nnn[nH]5)cc34)cc2)cc1
5.82 | < 4.30 | 6.82 |  | Clc1ccccc1-c1ccc(Oc2cncc3sc(-c4nn[nH]n4)cc23)cc1
5.12 | 4.95 | 6.77 | 5.19 | Fc1ccc(-c2ccc(Oc3cncc4sc(-c5nn[nH]n5)cc34)cc2)cc1
5.01 | 4.92 | 6.82 | 5.37 | c1ccc(-c2ccc(Oc3cncc4sc(-c5nn[nH]n5)cc34)cc2)cc1
4.64 |  | 6.62 |  | COc1cccc(-c2ccc(Oc3cncc4sc(-c5nnn[nH]5)cc34)cc2)c1
4.31 |  | 6.89 |  | COc1ccc(-c2ccc(Oc3cncc4sc(-c5nn[nH]n5)cc34)cc2)cc1
4.66 |  | 6.49 |  | COc1ccccc1-c1ccc(Oc2cncc3sc(-c4nnn[nH]4)cc23)cc1
 |  | 4.82 |  | c1ccc(-c2ccccc2Oc2cncc3sc(-c4nn[nH]n4)cc23)cc1
 |  | 5.80 |  | Brc1ccc(Oc2cncc3sc(-c4nnn[nH]4)cc23)cc1
 |  | 6.15 |  | Clc1ccc(Oc2cncc3sc(-c4nnn[nH]4)cc23)cc1
5.72 | < 4.30 | 6.92 |  | Clc1cccc(-c2ccc(Oc3cncc4sc(-c5nn[nH]n5)cc34)cc2)c1
5.62 | < 4.30 | 7.05 | 5.68 | Clc1ccc(-c2ccc(Oc3cncc4sc(-c5nn[nH]n5)cc34)cc2)cc1

More lines, now with the values behind:

Structure (SMILES) | pIC50 [1] | pIC50 [2] | pIC50 [3] | pIC50 [4]
CN(C)C(=O)c1ccc(-c2ccc(Oc3cncc4sc(-c5nn[nH]n5)cc34)cc2)cc1 | 4.32 | < 4.30 | 7.30 | 
FC(F)(F)c1ccc(-c2ccc(Oc3cncc4sc(-c5nn[nH]n5)cc34)cc2)cc1 | 5.74 | 5.77 | 6.55 | 6.25
NC(=O)c1ccc(-c2ccc(Oc3cncc4sc(-c5nn[nH]n5)cc34)cc2)cc1 | 4.74 |  | 8.00 | 6.89
Nc1ccc(-c2ccc(Oc3cncc4sc(-c5nn[nH]n5)cc34)cc2)cc1 | 5.82 | 5.96 | 6.64 | 
CC(=O)Nc1cc2c(Oc3ccc(I)cc3)cncc2s1 |  |  | < 4.30 | 
O=c1nc(-c2cc3c(Oc4ccc(I)cc4)cncc3s2)[nH]o1 |  |  | 5.95 | 
c1ccc(-c2cccc(Oc3cncc4sc(-c5nn[nH]n5)cc34)c2)cc1 |  |  | 5.77 | 
N#Cc1ccc(-c2ccc(Oc3cncc4sc(-c5nn[nH]n5)cc34)cc2)cc1 | 4.67 | 4.33 | 6.51 | 
Ic1ccc(Oc2cncc3sc(-c4nn[nH]n4)cc23)cc1 |  |  | 6.39 | 
O=C(NO)c1cc2c(Oc3ccc(I)cc3)cncc2s1 |  |  | 6.27 | 
O=C(O)c1cc2c(Oc3ccc(I)cc3)cncc2s1 |  |  | 6.03 | 
c1ccc(Oc2cncc3sc(-c4nn[nH]n4)cc23)cc1 |  |  | 5.66 | 
Nc1cc2c(Oc3ccc(I)cc3)cncc2s1 |  |  | < 4.30 | 
Cc1ccc(Oc2cncc3sc(-c4nn[nH]n4)cc23)cc1 |  |  | 5.12 | 
CC(C)(C)c1ccc(Oc2cncc3sc(-c4nn[nH]n4)cc23)cc1 |  |  | 6.21 | 

Source: ChEMBL document CHEMBL1141695, “Discovery of thieno[2,3-c]pyridines as potent COT inhibitors” (Bioorg Med Chem Lett, 2008)
